# pEC50, pIC50: −log10 of the molar value. Read-outs that look alike come from different tables or passages of the source.
# What was measured:
# [1] = tested on: excised wheat leaves (chlorophyll degradation in the dark); assay: Wheat leaf senescence assay (WLSA); type: cell-based, Triticum aestivum cv. Hereward; conditions: for pIC50: detached wheat leaves in the dark, 5 days, concentration at which chlorophyll degradation is inhibited by 50%, read-out: Senescence bioassay (IC50); for IC50: read-out: Senescence bioassay (IC50, μM)
# Description: (§1) Tobacco callus, Amaranthus and Wheat leaf senescence assay (WLSA) were performed as described by Holub et al. ([1998]) including the number of repetitions in each assay. An exception to the published protocols was that the tobacco callus assay was performed in 6-well microtiter plates (with each well containing 3 ml of Murashige Skoog medium into which 0.1 g of callus was added). Each compound was tested at least twice in each assay and in a wider concentration range to obtain concentration-dependent activity curves. IC50 means compound concentration at which chlorophyll degradation is inhibited by 50% and EC50 means half the maximal effective concentration.
# (§2) Amaranthus assay evaluates the induction of betacyanin synthesis in Amaranthus (Amaranthus caudatus var. atropurpurea) cotyledons, which is induced by cytokinins (Bamberger and Mayer, [1960]). The WLSA evaluates the ability of compounds to retard chlorophyll degradation in excised wheat leaves that are kept in the dark. The wheat leaf segments (Triticum aestivum cv. Hereward) were used in all other experiments requiring wheat. Arabidopsis (Arabidopsis thaliana) leaf senescence assay was performed with detached leaves from 30-day-old plants, which were grown in soil in phytotron under standard conditions (Rivero et al., [2014]). Four leaves of a combined weight of 60 mg were placed in a six-well plate and stored in the dark for 12 days at 22°C. The leaves (except the fresh control leaves) floated on water solutions of tested compounds. Fresh control leaves were leaves detached from a plant and immediately used for chlorophyll determination. The duration of the senescence assay of Arabidopsis leaves was prolonged to highlight the difference in chlorophyll content between a negative control and treatments. Arabidopsis leaves were losing chlorophyll more slowly than wheat leaves. Chlorophyll extraction and spectrophotometric determination of its content was done according to Holub et al. ([1998]).
# [2] = tested on: Amaranthus caudatus cotyledon-hypocotyl explants; assay: Amaranthus bioassay (betacyanin synthesis); type: cell-based, Amaranthus caudatus var. atropurpurea; conditions: for pEC50 / Amaranthus bioassay (EC50, μM): betacyanin synthesis, N.A. = not active; for pEC50: read-out: Amaranthus bioassay (EC50); for EC50: read-out: Amaranthus bioassay (EC50, μM)
# Description: as §1, §2
# ARR5:GUS reporter gene = assay: Arabidopsis ARR5:GUS reporter gene assay; type: in vivo, Arabidopsis thaliana; conditions: for pEC50: Arabidopsis thaliana, read-out: ARR5:GUS activation EC50; for ARR5:GUS activity, % of BA activity: 1 μM BA = 100%; for ARR5:GUS activation (in words): in vivo
# Description: Transgenic Arabidopsis plants (Arabidopsis thaliana (L.) Heynh. accession Wassilewskija) harboring the GUS reporter gene (gene for β-glucuronidase) fused to 1.6 kb of the ARR5 (PARR5−GUS) gene promoter (D'Agostino et al., [2000]) were kindly provided by professor Thomas Schmülling. The assay was performed according to Romanov et al. ([2002]). β-Glucuronidase (GUS) activity was quantitatively determined by measuring fluorescence of 4-methylumbelliferyl (MU) on a Synergy H4 hybrid reader (Biotek, Winooski, VT) with excitation and emission wavelengths of 365 and 445 nm, respectively. GUS specific activity was determined as nmol MU × mg protein^−1 × h^−1. This was calculated by dividing the relative fluorescence units (obtained per hour) by protein content of the same sample. Protein extraction was done as described by Romanov et al. ([2002]) but its content was determined using a bicinchoninic acid reagent (Smith et al., [1985]). Finally we expressed the GUS activity in samples as a relative percentage, the activity of 1 μM BA being set as 100% activation. The concentration-dependent activity curves and EC50 values (for TDZ, tZ, BA, TD-iP, and TD-tZ) were constructed using Scion image program.
# [3] = tested on: detached Arabidopsis leaves (chlorophyll loss in the dark); assay: Arabidopsis leaf senescence assay; type: cell-based, Arabidopsis thaliana; conditions: 1 μM, 12 days in the dark
# Text: as §2
# [4] = tested on: cytokinin-dependent tobacco callus; assay: Tobacco callus bioassay; type: cell-based; conditions: for pEC50 / Tobacco callus bioassay (EC50, μM): half the maximal effective concentration, N.A. = not active; for pEC50: read-out: Tobacco callus bioassay (EC50); for EC50: read-out: Tobacco callus bioassay (EC50, μM); for inhibition of callus growth at the highest concentration tested: 100 μM
# Description: as §1
# AHK3 = biological target: T1, AHK3 (Arabidopsis thaliana, UniProt Q9C5U1); assay: Cytokinin receptor activation assay in E. coli (AHK3); type: cell-based
# T1 construct: expressed in transfected cells; host or cells: Escherichia coli strain KMI001, plasmid pSTV28-AHK3
# T1 sequence (Q9C5U1 1-1036): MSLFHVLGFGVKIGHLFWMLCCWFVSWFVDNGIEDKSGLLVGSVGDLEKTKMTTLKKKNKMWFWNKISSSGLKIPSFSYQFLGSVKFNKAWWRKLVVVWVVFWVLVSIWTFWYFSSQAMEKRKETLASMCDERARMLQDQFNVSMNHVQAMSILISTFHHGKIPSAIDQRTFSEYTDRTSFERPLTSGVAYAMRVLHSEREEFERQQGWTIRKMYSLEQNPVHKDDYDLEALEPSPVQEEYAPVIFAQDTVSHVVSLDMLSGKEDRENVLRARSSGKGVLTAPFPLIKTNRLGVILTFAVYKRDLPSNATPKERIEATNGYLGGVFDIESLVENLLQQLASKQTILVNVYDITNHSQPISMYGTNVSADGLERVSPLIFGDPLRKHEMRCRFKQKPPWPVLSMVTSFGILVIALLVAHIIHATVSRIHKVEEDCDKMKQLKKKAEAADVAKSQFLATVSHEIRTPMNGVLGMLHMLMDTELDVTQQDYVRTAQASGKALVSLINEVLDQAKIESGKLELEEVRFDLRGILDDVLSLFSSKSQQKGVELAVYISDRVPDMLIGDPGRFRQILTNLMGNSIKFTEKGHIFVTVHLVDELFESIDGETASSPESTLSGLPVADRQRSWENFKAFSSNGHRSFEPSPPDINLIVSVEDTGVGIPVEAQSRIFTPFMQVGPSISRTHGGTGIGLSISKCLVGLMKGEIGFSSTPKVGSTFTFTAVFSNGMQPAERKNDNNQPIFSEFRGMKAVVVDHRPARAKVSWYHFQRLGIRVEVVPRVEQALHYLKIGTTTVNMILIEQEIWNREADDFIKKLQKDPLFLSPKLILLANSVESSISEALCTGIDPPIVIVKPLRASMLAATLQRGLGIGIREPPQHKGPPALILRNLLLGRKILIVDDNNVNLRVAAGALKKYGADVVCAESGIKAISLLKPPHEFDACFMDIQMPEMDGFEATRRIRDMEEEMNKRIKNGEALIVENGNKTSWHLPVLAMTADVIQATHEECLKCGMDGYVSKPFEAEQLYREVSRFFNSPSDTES
# Text: (§3) The activity of this enzyme is finally measured in the assay and corresponds to the ability of the tested compound to activate this cytokinin receptor. Both assays were done at least twice and the presented graphs are the most representative examples.
# CRE1/AHK4 [5] = biological target: T2, CRE1/AHK4 (Arabidopsis thaliana, UniProt Q9C5U0); assay: Cytokinin receptor activation assay in E. coli (CRE1/AHK4); type: cell-based; design: expressed in transfected cells; host or cells: Escherichia coli strain KMI001, plasmid pIN-IIIAHK4
# T2 sequence (Q9C5U0 whole entry): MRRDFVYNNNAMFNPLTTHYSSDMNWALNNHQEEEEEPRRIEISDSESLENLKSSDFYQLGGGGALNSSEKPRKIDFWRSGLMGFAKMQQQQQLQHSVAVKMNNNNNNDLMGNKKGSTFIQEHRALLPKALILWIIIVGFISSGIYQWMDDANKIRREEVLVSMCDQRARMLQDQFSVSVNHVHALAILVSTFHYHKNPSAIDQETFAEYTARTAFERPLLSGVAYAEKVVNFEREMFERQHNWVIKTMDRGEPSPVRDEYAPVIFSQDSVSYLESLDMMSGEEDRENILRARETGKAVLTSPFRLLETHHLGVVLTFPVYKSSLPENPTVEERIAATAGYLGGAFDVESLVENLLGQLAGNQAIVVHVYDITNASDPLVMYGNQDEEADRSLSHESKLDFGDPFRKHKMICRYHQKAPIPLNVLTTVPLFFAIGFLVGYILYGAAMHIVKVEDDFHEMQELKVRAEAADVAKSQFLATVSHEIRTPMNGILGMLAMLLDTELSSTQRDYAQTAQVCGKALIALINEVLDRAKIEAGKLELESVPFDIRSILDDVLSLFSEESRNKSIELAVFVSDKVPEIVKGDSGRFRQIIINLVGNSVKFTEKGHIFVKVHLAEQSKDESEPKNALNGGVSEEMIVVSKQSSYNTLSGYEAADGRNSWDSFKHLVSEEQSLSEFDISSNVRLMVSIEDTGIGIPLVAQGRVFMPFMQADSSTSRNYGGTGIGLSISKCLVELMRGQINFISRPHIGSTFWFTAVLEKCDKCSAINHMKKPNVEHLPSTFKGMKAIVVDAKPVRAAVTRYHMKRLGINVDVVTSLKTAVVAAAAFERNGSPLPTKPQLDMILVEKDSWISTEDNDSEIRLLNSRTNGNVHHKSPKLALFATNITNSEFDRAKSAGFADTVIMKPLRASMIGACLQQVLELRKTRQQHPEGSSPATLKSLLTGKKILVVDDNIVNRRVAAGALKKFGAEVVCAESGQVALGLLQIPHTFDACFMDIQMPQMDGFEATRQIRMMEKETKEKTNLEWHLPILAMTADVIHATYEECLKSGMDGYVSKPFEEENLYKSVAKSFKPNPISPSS
# Text: as §3
# [6] = tested on: excised wheat leaves (chlorophyll degradation in the dark); conditions: read-out: WLSA IC50; ref Gajdošová et al., [2011]; cited from earlier work
# CRE1/AHK4 [7] = biological target: T2, CRE1/AHK4; conditions: read-out: CRE1/AHK4 receptor activation EC50 (previous study); ref Nisler et al., [2010]; cited from earlier work
# [8] = E. coli bacterial receptor assay, read-out: AHK3 receptor activation EC50
# [9] = E. coli bacterial receptor assay, read-out: CRE1/AHK4 receptor activation EC50
compound,measurement,setting,value
"c1ccc(CNc2ncnc3nc[nH]c23)cc1 [BA, N^6-benzyladenine, reference compound]",pIC50,"[1]; Triticum aestivum, 120 h",< 4.00
same,pEC50,[2]; Amaranthus caudatus,6.12
same,pEC50,ARR5:GUS reporter gene; transgenic Arabidopsis plants,7.12
same,% more of chlorophyll retained than DMSO (negative control),[3],65%
same,pEC50,[4]; Nicotiana tabacum,7.22
O=C(NCCO)Nc1cnns1 [Compound 1],pIC50,"[1]; Triticum aestivum, 120 h",4.59
same,"Amaranthus bioassay (EC50, μM)",[2],inactive
same,pEC50,[4]; Nicotiana tabacum,4.82
O=C(NCCCO)Nc1cnns1 [Compound 2],pIC50,"[1]; Triticum aestivum, 120 h",> 5.00
same,pIC50,[1],5.10
same,pEC50,[2]; Amaranthus caudatus,4.12
same,pEC50,[4]; Nicotiana tabacum,5.15
COCCCNC(=O)Nc1cnns1 [Compound 4],pIC50,"[1]; Triticum aestivum, 120 h",4.72
same,pEC50,[2]; Amaranthus caudatus,4.78
same,pEC50,[4]; Nicotiana tabacum,5.66
CC(O)CNC(=O)Nc1cnns1 (stereo not drawn) [Compound 5],"Amaranthus bioassay (EC50, μM)",[2],inactive
same,"ARR5:GUS activity, % of BA activity",ARR5:GUS reporter gene; compound at 10 μM,55–65%
same,pEC50,[4]; Nicotiana tabacum,5.15
COCCN(C)C(=O)Nc1cnns1 [Compound 6],pIC50,"[1]; Triticum aestivum, 120 h",4.60
same,"Amaranthus bioassay (EC50, μM)",[2],inactive
same,"Tobacco callus bioassay (EC50, μM)",[4],completely inactive
COCCN(CCOC)C(=O)Nc1cnns1 [Compound 7],pIC50,"[1]; Triticum aestivum, 120 h",4.21
same,"Amaranthus bioassay (EC50, μM)",[2],inactive
same,ARR5:GUS activation (in words),ARR5:GUS reporter gene,completely inactive
same,"Tobacco callus bioassay (EC50, μM)",[4],completely inactive
COC(CNC(=O)Nc1cnns1)OC [Compound 8],pEC50,[2]; Amaranthus caudatus,4.78
same,"ARR5:GUS activity, % of BA activity",ARR5:GUS reporter gene; compound at 10 μM,55–65%
same,pEC50,[4]; Nicotiana tabacum,5.62
COC(=O)CNC(=O)Nc1cnns1 [Compound 9],pIC50,"[1]; Triticum aestivum, 120 h",< 4.00
same,pEC50,[2]; Amaranthus caudatus,< 4.00
same,pEC50,[4]; Nicotiana tabacum,4.15
COCC(C)NC(=O)Nc1cnns1 (stereo not drawn) [Compound 10],pIC50,"[1]; Triticum aestivum, 120 h",> 5.00
same,pIC50,[1],5.07
same,pEC50,[2]; Amaranthus caudatus,4.58
same,pEC50,[4]; Nicotiana tabacum,5.51
CCOCCNC(=O)Nc1cnns1 [Compound 11],pIC50,"[1]; Triticum aestivum, 120 h",4.08
same,pEC50,[2]; Amaranthus caudatus,< 4.00
same,ARR5:GUS activation (in words),ARR5:GUS reporter gene,completely inactive
same,"Tobacco callus bioassay (EC50, μM)",[4],completely inactive
C#CCNC(=O)Nc1cnns1 [Compound 12],pIC50,"[1]; Triticum aestivum, 120 h",4.77
same,pEC50,[2]; Amaranthus caudatus,4.82
same,pEC50,[4]; Nicotiana tabacum,5.62
C=CCNC(=O)Nc1cnns1 [Compound 13],pIC50,"[1]; Triticum aestivum, 120 h",> 5.00
same,pIC50,[1],5.15
same,pEC50,[2]; Amaranthus caudatus,4.85
same,"ARR5:GUS activity, % of BA activity",ARR5:GUS reporter gene; compound at 10 μM,55–65%
same,pEC50,[4]; Nicotiana tabacum,5.80
O=C(NCCCl)Nc1cnns1 [Compound 14],IC50,"[1]; Triticum aestivum, 120 h",14 µM
same,pEC50,AHK3,4.82
same,EC50,[2]; Amaranthus caudatus,10.8 µM
same,"ARR5:GUS activity, % of BA activity",ARR5:GUS reporter gene; compound at 1 μM,65%
same,EC50,[4]; Nicotiana tabacum,0.87 µM
same,"Tobacco callus bioassay (EC50, μM)",[4],sub-micromolar range
CN(C)CCNC(=O)Nc1cnns1 [Compound 15],"Amaranthus bioassay (EC50, μM)",[2],inactive
same,ARR5:GUS activation (in words),ARR5:GUS reporter gene,completely inactive
same,"Tobacco callus bioassay (EC50, μM)",[4],completely inactive
"CC(CO)CCNc1ncnc2nc[nH]c12 (stereo not drawn) [DHZ, dihydrozeatin, reference compound]",pIC50,"[1]; Triticum aestivum, 120 h",< 4.00
same,pEC50,[2]; Amaranthus caudatus,5.00
same,pEC50,[4]; Nicotiana tabacum,7.19
"CC(CO)CCNC(=O)Nc1cnns1 (stereo not drawn) [TD-DHZ, N-(4-hydroxy-3-methyl-butyl)-N′-1,2,3-thiadiazol-5-yl-urea]",pIC50,"[1]; Triticum aestivum, 120 h",4.25
same,pEC50,[2]; Amaranthus caudatus,4.37
same,times less active than DHZ in tobacco callus assay,[4],10 times
same,pEC50,[4]; Nicotiana tabacum,6.09
"CC(C)=CCNC(=O)Nc1cnns1 [TD-iP, N-2-isopentenyl-N′-1,2,3-thiadiazol-5-yl-urea]",pIC50,"[1]; Triticum aestivum, 120 h",4.03
same,pEC50,AHK3; [8],5.85
same,pEC50,[2]; Amaranthus caudatus,5.96
same,pEC50,ARR5:GUS reporter gene; transgenic Arabidopsis plants,7.19
same,pEC50,CRE1/AHK4 [5]; [9],5.03
same,inhibition of callus growth at the highest concentration tested,[4],did not inhibit the growth of callus
same,pEC50,[4]; Nicotiana tabacum,7.77
"C/C(=C\CNC(=O)Nc1cnns1)CO [TD-tZ, N-[(E)-4-hydroxy-3-methyl-but-2-enyl]-N′-1,2,3-thiadiazol-5-yl-urea]",pIC50,"[1]; Triticum aestivum, 120 h",4.89
same,pEC50,AHK3; [8],6.72
same,pEC50,[2]; Amaranthus caudatus,5.82
same,pEC50,ARR5:GUS reporter gene; transgenic Arabidopsis plants,6.28
same,pEC50,CRE1/AHK4 [5]; [9],4.49
same,inhibition of callus growth at the highest concentration tested,[4],did not inhibit the growth of callus
same,pEC50,[4]; Nicotiana tabacum,8.00
"C/C(=C/CNc1ncnc2nc[nH]c12)CO [cis-zeatin, reference compound]","IC50 in WLSA, fold higher than IC50 of ASES",[1],300 fold
same,"IC50 in WLSA, fold higher than IC50 of tZ",[1],10 fold
same,pIC50,[6],~3.52
"C/C(=C\CNc1ncnc2[nH]cnc12)CO [tZ, trans-zeatin, reference compound]",IC50,"[1]; Triticum aestivum, 120 h",30 µM
same,pEC50,CRE1/AHK4 [7],6.70
same,pEC50,AHK3,7.18
same,EC50,[2]; Amaranthus caudatus,0.9 µM
same,pEC50,ARR5:GUS reporter gene,8.05
same,pEC50,CRE1/AHK4 [5],6.46
same,EC50,[4]; Nicotiana tabacum,0.012 µM
"N^6-isopentenyladenine [iP, reference compound]",pIC50,[1],< 3.70
same,pEC50,[2],5.70
same,pEC50,[4],7.89

# From article PMC6142817, “New Urea Derivatives Are Effective Anti-senescence Compounds Acting Most Likely via a Cytokinin-Independent Mechanism” (Frontiers in Plant Science, 2018)
